Assay results taken from patent publication US20070276032A1, “Use of 8-Prenylnaringenin for Hormone Replacement Therapy” (priority 2003, published 2007).

What was measured:
ovariectomized rats [1] = test: Bone mineral density of proximal tibia, estradiol in ovariectomized rats (Example 2); format: in vivo, Sprague-Dawley rats; details: OVX rats; for Total bone density / Trabecular density: proximal tibia, s.c. 5 days a week, 4 weeks
Description: Fifty-six female Sprague-Dawley rats, 12-14 weeks old, were used altogether. Forty-nine animals were randomized into seven groups. Group 8 (seven animals) administered with the third vehicle, benzyl alcohol/sesame oil, was added to the study thirteen days later. Seven groups were ovariectomized (OVX) and one group was sham-operated (SHAM). Animals were treated subcutaneously once a day, five days a week (Monday-Friday) as follows. Groups 1 (the SHAM group) and 2 (the OVX group) were given the vehicle benzylbenzoate/ricinus oil (0.5 ml/kg, B/R). […] Treatments started on the day following surgical operation and continued for 4 weeks. At the end of the study, ex vivo BMD of proximal tibia was measured and serum estradiol was determined. In addition, uterus was weighed. Bone mineral density measurement was carried out by pQCT (XCT-960A, Stratec, Germany). The bone specimens were thawed before measurement. Six 1 mm-thick sections of the proximal tibia (2 mm below the epiphyseal growth plate) were scanned at 0.5 mm intervals using a voxel size of 0.148 mm. […] After bone densitometry, the specimens were wrapped back to saline saturated gauzes and stored at −20° C.

ovariectomized rats [2] = test: Relative uterine weight, estradiol in ovariectomized rats (Example 2); format: in vivo, Sprague-Dawley rats; details: OVX rats; for Relative uterine weight: s.c. 5 days a week, 4 weeks
Description: (§1) Fifty-six female Sprague-Dawley rats, 12-14 weeks old, were used altogether. Forty-nine animals were randomized into seven groups. Group 8 (seven animals) administered with the third vehicle, benzyl alcohol/sesame oil, was added to the study thirteen days later. Seven groups were ovariectomized (OVX) and one group was sham-operated (SHAM). Animals were treated subcutaneously once a day, five days a week (Monday-Friday) as follows. Groups 1 (the SHAM group) and 2 (the OVX group) were given the vehicle benzylbenzoate/ricinus oil (0.5 ml/kg, B/R). […] Treatments started on the day following surgical operation and continued for 4 weeks. At the end of the study, ex vivo BMD of proximal tibia was measured and serum estradiol was determined. In addition, uterus was weighed. Relative uterine weight was calculated as percentage of body weight

ERE-Luc = test: Estrogenic activity in the estrogen reporter mouse ERE-Luc model, luciferase activity in organs (Example 5); format: in vivo, mice; details: male ERE-Luc mice, six hours after the injection; for Luciferase activity, Prostate: controls 0.5; for Luciferase activity, Bone: controls 2.8; for Luciferase activity, Brain: controls 6.5; for Luciferase activity, Liver: controls 7.6
Description: In order to avoid experimental noise male animals were used.
Fourtyfive heterozygous male ERE-Luc mice of two months of age were fed with soy-free diet for two weeks before assigning them to each experimental group then all the mice were injected intraperitoneally (i.p.) with 250 μl of an oily solution containing the following compounds: • 1. Experimental group 1: vehicle • 2. Experimental group 2: 17β-estradiol at 1.5 μg/kg • 3. Experimental group 3: 2S(−)-8-PN at 30 mg/kg • 4. […] Experimental group 5: genistein at 30 mg/kg.
The treatment was carried out in experimental groups of three mice each and repeated three times (therefore numbers reflect the average of […] determinations on a total of 9 animals).
Six hours after the injection, mice were sacrificed by cervical dislocation and organs were dissected and frozen on dry ice. The following organs were analyzed for lucifererase activity by enzymatic assay: prostate, liver, bone, brain.
Data represent means ±standard deviation of N=9 animals per group.
Analysis of variance (ANOVA) for overall comparison was followed by Tukey test for paired comparisons. All statistical procedures were carried out with Systat and SAS (*P<0.05; **P<0.01).

[3] = Body weight, estradiol in ovariectomized rats (Example 2); format: in vivo, Sprague-Dawley rats; details: OVX rats, s.c. once a day, 5 days a week, 4 weeks
Description: as §1, with “weighed.” for “weighed. Relative uterine weight was calculated as percentage of body weight”

ovariectomized rats [4] = test: Trabecular density of proximal tibia, 8-PN racemic, 2S(−) 8-PN and estradiol hemihydrate in ovariectomized rats (Example 4); format: in vivo, Sprague-Dawley rats; details: OVX rats, s.c. 28 days
Description: (§2) The aim of the study was to directly compare the effects of Prenylnaringenin (racemate) and 2S(−) 8-Prenylnaringenin to the effects of estradiol hemihydrate on bone mineral density and uterine weight on 3-month-old ovariectomized rats using identical formulations. In addition, the effects of estradiolhemihydrate in two vehicles (oily, aqueous) were examined for influence of formulations. The substances were administered subcutaneously(s.c.) seven days a week beginning the day after ovariectomy. At the end of the study, uterine weight and bone mineral density (BMD) of tibia were measured.
(§3) Forty-one female Sprague-Dawley rats, 12-14 weeks of age were randomized into six groups, 6-8 animals in each. Five groups were ovariectomized (OVX) and one group was sham-operated (SHAM). Treatments started on the day following operation and continued for 28 days. The animals were treated s.c. once a day seven times a week as follows. Group 1 (SHAM vehicle group) and group 2 (OVX vehicle group) were given the vehicle 30% hydroxypropyl-β-cyclodextrin (HP-β-CD). Groups 3 and 4 were administered 4 μg/kg/d of estradiol hemihydrate in vehicle benzyl benzoate/ricinus oil (B/R) and in vehicle HP-β-CD, respectively. Groups 5 and 6 were given 20 mg/kg/d of 2S(−)8-Prenylnaringenin and racemic 8-Prenylnaringenin, respectively, both in vehicle HP-β-CD. At the end of the study, left tibiae were excised for the ex vivo BMD […] were taken from all dosing solutions on the first and last day of use.
(§4) Vehicle 1 (used in the groups 1 and 2): 30% hydroxypropyl-β-cyclodextrin and 0.3% NaCl (w/v), 5% ethanol (v/v) in Aqua sterilisata, pH 7.4.
(§5) Vehicle 2 (used when preparing dosing solutions of the groups 4, 5 and 6): 30% hydroxypropyl-β-cyclodextrin and 0.3% NaCl (w/v) in Aqua sterilisata, pH 7.4.
(§6) Vehicle 3 (used when preparing a dosing solution of the group 3): benzyl benzoate/ricinus oil (B/R) 1+4, v/v.

ovariectomized rats [5] = test: Relative uterus weight, 8-PN racemic, 2S(−) 8-PN and estradiol hemihydrate in ovariectomized rats (Example 4); format: in vivo, Sprague-Dawley rats; details: OVX rats, s.c. 28 days, calculated as percentage of body weight
Description: as §2, §3, §4, §5, §6

[6] = Body weight, 8-PN racemic, 2S(−) 8-PN and estradiol hemihydrate in ovariectomized rats (Example 4); format: in vivo, Sprague-Dawley rats; details: OVX rats, s.c. once a day, 28 days
Description: as §2, §3, §4, §5, §6

[7] = 4.0 μpg/kg/d s.c. five times a week for four weeks
[8] = 4 μg/kg/d in benzyl benzoate/ricinus oil (B/R)

SMILES: C[C@]12CC[C@@H]3c4ccc(O)cc4CC[C@H]3[C@@H]1CC[C@@H]2O [17β-estradiol]
- effect on total and trabecular bone mineral density of proximal tibia (ovariectomized rats [1]; [7]): prevented the OVX-induced decrease in total and trabecular bone mineral density of proximal tibia
- Total bone density (ovariectomized rats [1]; 0.2 μg/kg/d in B/R): 511 (17) mg/cm^3
- Trabecular density (ovariectomized rats [1]; 0.2 μg/kg/d in B/R): 271 (17) mg/cm^3
- Total bone density (ovariectomized rats [1]; 0.4 μg/kg/d in B/R): 506 (8) mg/cm^3
- Trabecular density (ovariectomized rats [1]; 0.4 μg/kg/d in B/R): 260 (13) mg/cm^3
- Total bone density (ovariectomized rats [1]; 1.2 μg/kg/d in B/R): 577 (24) mg/cm^3
- Trabecular density (ovariectomized rats [1]; 1.2 μg/kg/d in B/R): 376 (31) mg/cm^3
- Total bone density (ovariectomized rats [1]; 1.2 μg/kg/d in E/A): 577 (22) mg/cm^3
- Trabecular density (ovariectomized rats [1]; 1.2 μg/kg/d in E/A): 366 (24) mg/cm^3
- Total bone density (ovariectomized rats [1]; 4.0 μg/kg/d in B/R): 637 (13) mg/cm^3
- Trabecular density (ovariectomized rats [1]; 4.0 μg/kg/d in B/R): 435 (21) mg/cm^3
- effect on relative uterine weight (ovariectomized rats [2]; [7]): prevented the decrease in relative uterine weight and maintained it on the level of the SHAM vehicle group
- Relative uterine weight (ovariectomized rats [2]; 0.2 μg/kg/d in B/R): 0.045 (0.003) % of body weight
- Relative uterine weight (ovariectomized rats [2]; 0.4 μg/kg/d in B/R): 0.054 (0.003) % of body weight
- Relative uterine weight (ovariectomized rats [2]; 1.2 μg/kg/d in B/R): 0.110 (0.008) % of body weight
- Relative uterine weight (ovariectomized rats [2]; 1.2 μg/kg/d in E/A): 0.114 (0.005) % of body weight
- Relative uterine weight (ovariectomized rats [2]; 4.0 μg/kg/d in B/R): 0.159 (0.006) % of body weight
- Luciferase activity, Prostate (ERE-Luc; i.p. 1.5 μg/kg): 0.5 arbitrary units
- Luciferase activity, Bone (ERE-Luc; i.p. 1.5 μg/kg): 2.6 arbitrary units
- Luciferase activity, Brain (ERE-Luc; i.p. 1.5 μg/kg): 6.6 arbitrary units
- Luciferase activity, Liver (ERE-Luc; i.p. 1.5 μg/kg): 11.0 ** arbitrary units
- Final body weight ([3]; 0.2 μg/kg/d in vehicle B/R): 304 (6) g
- The change in body weight ([3]; 0.2 μg/kg/d in vehicle B/R): 51 (3) g
- Final body weight ([3]; 0.4 μg/kg/d in vehicle B/R): 312 (6) g
- The change in body weight ([3]; 0.4 μg/kg/d in vehicle B/R): 53 (5) g
- Final body weight ([3]; 1.2 μg/kg/d in vehicle B/R): 303 (6) g
- The change in body weight ([3]; 1.2 μg/kg/d in vehicle B/R): 48 (4) g
- Final body weight ([3]; 1.2 μg/kg/d in vehicle E/A): 287 (8) g
- The change in body weight ([3]; 1.2 μg/kg/d in vehicle E/A): 33 (3) g
- Final body weight ([3]; 4.0 μg/kg/d in vehicle B/R): 284 (7) g
- The change in body weight ([3]; 4.0 μg/kg/d in vehicle B/R): 31 (3) g

SMILES: O=c1c(-c2ccc(O)cc2)coc2cc(O)cc(O)c12 [Genistein, genistein]
- Luciferase activity, Prostate (ERE-Luc; i.p. 30 mg/kg): 0.7 ** arbitrary units
- Luciferase activity, Bone (ERE-Luc; i.p. 30 mg/kg): 3.8 * arbitrary units
- Luciferase activity, Brain (ERE-Luc; i.p. 30 mg/kg): 8.7 arbitrary units
- Luciferase activity, Liver (ERE-Luc; i.p. 30 mg/kg): 12.2 ** arbitrary units

SMILES: C[C@]12CC[C@@H]3c4ccc(O)cc4CC[C@H]3[C@@H]1CC[C@@H]2O [estradiol hemihydrate, 17β-estradiol hemihydrate, reference compound]
- Trabecular density at left proximal tibia, Mean (ovariectomized rats [4]; 4 μg/kg/d in B/R): 542 mg/cm3
- Trabecular density at left proximal tibia, Median (ovariectomized rats [4]; 4 μg/kg/d in B/R): 577 mg/cm3
- Trabecular density at left proximal tibia, Mean (ovariectomized rats [4]; 4 μg/kg/d in HP-β-CD): 406 mg/cm3
- Trabecular density at left proximal tibia, Median (ovariectomized rats [4]; 4 μg/kg/d in HP-β-CD): 383 mg/cm3
- Total bone density (ovariectomized rats [1]; 1.2 μg/kg/d in BA/S): 596 (18) mg/cm^3
- Trabecular density (ovariectomized rats [1]; 1.2 μg/kg/d in BA/S): 386 (21) mg/cm^3
- Relative uterine weight (ovariectomized rats [2]; 1.2 μg/kg/d in BA/S): 0.131 (0.008) % of body weight
- Relative uterus weight, Mean (ovariectomized rats [5]; 4 μg/kg/d in B/R): 0.175
- Relative uterus weight, Median (ovariectomized rats [5]; 4 μg/kg/d in B/R): 0.178
- Relative uterus weight, Mean (ovariectomized rats [5]; 4 μg/kg/d in HP-β-CD): 0.131
- Relative uterus weight, Median (ovariectomized rats [5]; 4 μg/kg/d in HP-β-CD): 0.120
- Final body weight ([3]; 1.2 μg/kg/d in vehicle BA/S): 288 (11) g
- The change in body weight ([3]; 1.2 μg/kg/d in vehicle BA/S): 28 (1) g
- Body weight at The end (bw4b) ([6]; 4 μg/kg/d in HP-β-CD): 285(9) g
- The change in Body weight (bw4b-bw0) ([6]; 4 μg/kg/d in HP-β-CD): 10(4) g
- Body weight at The end (bw4b) [6, 8]: 291(9) g
- The change in Body weight (bw4b-bw0) [6, 8]: 17(4) g
